Data from US4401604A, “Process for preparing thiosulfenamide derivatives of N-phosphonomethylglycine triesters” (Monsanto Company, priority 1981, dated 1983).

What was measured:
Assay in all cases: Post-emergence herbicidal activity, greenhouse
Type in all cases: in vivo
[1] = test system: Morningglory
How it was run: (§1)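 Sow seeds/propagules in soil pans, grow in greenhouse with subirrigation to 2–3 weeks, spray foliage with compound formulated with cyclohexanone emulsifier mixture (~0.4%), return to greenhouse, then rate injury against controls about two and four weeks later.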

[2] = test system: Quackgrass; conditions: Table I, 4 WAT
How it was run: as §1

[3] = test system: Johnsongrass; conditions: Table I, 4 WAT
How it was run: as §1

[4] = test system: Yellow Nutsedge; conditions: Table I, 4 WAT
How it was run: as §1

[5] = test system: Downy Brome
How it was run: as §1

[6] = test system: Sugar Beet; conditions: Table II
How it was run: as §1

[7] = test system: Sorghum; conditions: Table II
How it was run: as §1

[8] = test system: Wheat; conditions: Table II
How it was run: as §1

[9] = test system: Panicum Spp; conditions: Table II
How it was run: as §1

[10] = test system: Lambsquarters
How it was run: as §1

[11] = test system: Velvetleaf
How it was run: as §1

[12] = test system: Cocklebur
How it was run: as §1

[13] = test system: Soybean; conditions: Table II
How it was run: as §1

[14] = test system: Smartweed
How it was run: as §1

[15] = test system: Canada Thistle; conditions: Table I, 4 WAT
How it was run: as §1

[16] = test system: Hemp Sesbania; conditions: Table II
How it was run: as §1

[17] = test system: Barnyardgrass
How it was run: as §1

[18] = test system: Rice; conditions: Table II
How it was run: as §1

[19] = test system: Crabgrass; conditions: Table II
How it was run: as §1

[20] = test system: Wild Buckwheat; conditions: Table II
How it was run: as §1

Measured: post-emergence herbicidal activity index

COC(=O)CN(CP(=O)(Oc1ccccc1)Oc1ccccc1)SSC(C)C [I, Glycine, N-[(diphenoxyphosphinyl)methyl]-N-[(1-methylethyl)dithio]-, methyl ester]
4 (100% control): [1]; Table I, 5.6 kg/h, 4 WAT | [2]; 5.6 kg/h | [3]; 11.2 kg/h | [6]; 5.6 kg/h, 4 WAT | [10]; Table I, 11.2 kg/h, 4 WAT | [10]; Table II, 5.6 kg/h, 4 WAT | [11]; Table I, 11.2 kg/h, 4 WAT | [11]; Table II, 5.6 kg/h, 4 WAT | [12]; Table I, 5.6 kg/h, 4 WAT | [12]; Table I, 11.2 kg/h, 4 WAT | [14]; Table I, 5.6 kg/h, 4 WAT | [14]; Table I, 11.2 kg/h, 4 WAT | [14]; Table II, 5.6 kg/h, 4 WAT | [16]; 5.6 kg/h, 4 WAT | [17]; Table I, 5.6 kg/h, 4 WAT | [17]; Table I, 11.2 kg/h, 4 WAT | [17]; Table II, 5.6 kg/h, 4 WAT | [19]; 5.6 kg/h, 4 WAT
0 (0- 24% control): [1]; Table II, 0.056 kg/h, 2 WAT | [1]; Table II, 0.28 kg/h, 2 WAT | [5]; Table II, 0.056 kg/h, 2 WAT | [5]; Table II, 0.28 kg/h, 2 WAT | [6]; 0.056 kg/h, 2 WAT | [6]; 0.28 kg/h, 2 WAT | [7]; 0.056 kg/h, 2 WAT | [7]; 0.28 kg/h, 2 WAT | [8]; 0.056 kg/h, 2 WAT | [8]; 0.28 kg/h, 2 WAT | [8]; 11.2 kg/h, 4 WAT | [9]; 0.056 kg/h, 2 WAT | [10]; Table II, 0.056 kg/h, 2 WAT | [10]; Table II, 0.28 kg/h, 2 WAT | [11]; Table II, 0.056 kg/h, 2 WAT | [12]; Table II, 0.056 kg/h, 2 WAT | [12]; Table II, 0.28 kg/h, 2 WAT | [12]; Table II, 11.2 kg/h, 4 WAT | [13]; 0.056 kg/h, 2 WAT | [13]; 0.28 kg/h, 2 WAT | [13]; 11.2 kg/h, 4 WAT | [14]; Table II, 0.056 kg/h, 2 WAT | [14]; Table II, 0.28 kg/h, 2 WAT | [16]; 0.056 kg/h, 2 WAT | [16]; 0.28 kg/h, 2 WAT | [16]; 11.2 kg/h, 4 WAT | [17]; Table II, 0.056 kg/h, 2 WAT | [18]; 0.056 kg/h, 2 WAT | [18]; 0.28 kg/h, 2 WAT | [18]; 1.12 kg/h, 4 WAT | [19]; 0.056 kg/h, 2 WAT | [19]; 0.28 kg/h, 2 WAT | [20]; 0.056 kg/h, 2 WAT | [20]; 0.28 kg/h, 2 WAT | [20]; 11.2 kg/h, 4 WAT
2 (50-74% control): [1]; Table II, 1.12 kg/h, 4 WAT | [5]; Table II, 5.6 kg/h, 4 WAT | [5]; Table II, 11.2 kg/h, 4 WAT | [6]; 1.12 kg/h, 4 WAT | [7]; 11.2 kg/h, 4 WAT | [11]; Table II, 1.12 kg/h, 4 WAT | [12]; Table II, 1.12 kg/h, 4 WAT | [15]; 5.6 kg/h | [17]; Table II, 1.12 kg/h, 4 WAT | [20]; 1.12 kg/h, 4 WAT
3 (75-99% control): [1]; Table I, 11.2 kg/h, 4 WAT | [1]; Table II, 5.6 kg/h, 4 WAT | [2]; 11.2 kg/h | [3]; 5.6 kg/h | [4]; 5.6 kg/h | [4]; 11.2 kg/h | [5]; Table I, 5.6 kg/h, 4 WAT | [5]; Table I, 11.2 kg/h, 4 WAT | [6]; 11.2 kg/h, 4 WAT | [7]; 5.6 kg/h, 4 WAT | [8]; 5.6 kg/h, 4 WAT | [9]; 5.6 kg/h, 4 WAT | [9]; 11.2 kg/h, 4 WAT | [10]; Table I, 5.6 kg/h, 4 WAT | [10]; Table II, 1.12 kg/h, 4 WAT | [10]; Table II, 11.2 kg/h, 4 WAT | [11]; Table I, 5.6 kg/h, 4 WAT | [12]; Table II, 5.6 kg/h, 4 WAT | [13]; 5.6 kg/h, 4 WAT | [14]; Table II, 1.12 kg/h, 4 WAT | [14]; Table II, 11.2 kg/h, 4 WAT | [15]; 11.2 kg/h | [17]; Table II, 11.2 kg/h, 4 WAT | [18]; 5.6 kg/h, 4 WAT | [18]; 11.2 kg/h, 4 WAT | [19]; 1.12 kg/h, 4 WAT | [19]; 11.2 kg/h, 4 WAT | [20]; 5.6 kg/h, 4 WAT
1 (25-49% control): [1]; Table II, 11.2 kg/h, 4 WAT | [5]; Table II, 1.12 kg/h, 4 WAT | [7]; 1.12 kg/h, 4 WAT | [8]; 1.12 kg/h, 4 WAT | [9]; 0.28 kg/h, 2 WAT | [9]; 1.12 kg/h, 4 WAT | [11]; Table II, 0.28 kg/h, 2 WAT | [11]; Table II, 11.2 kg/h, 4 WAT | [13]; 1.12 kg/h, 4 WAT | [16]; 1.12 kg/h, 4 WAT | [17]; Table II, 0.28 kg/h, 2 WAT
